Measurements as given in US7030060B1, “Rest-breaking composition and use thereof” (Akzo Nobel N.V., priority 1999, dated 2006).

Test system: Golden Delicious apples
Assay: Usability of the organic nitrogen compound for rest-breaking
Type: in vivo
Conditions: South Africa
From the text: It is to be understood that not all compounds may work on all deciduous fruit species in all orchards.

Substance: choline borate
- Usability on Golden Delicious apples: could not be used
